Measurements: ChEMBL document CHEMBL3507680, “University of Dundee, Gates Library screen for HepG2 cell viability”

Test: Human HepG2 cell viability assay in 384 well format
Type: toxicity, cell-based
Design: dose 125 nL, time 70.5 hour; cytotoxicity at 70.5 h: concentration not given beside the values
Conditions: HepG2 cells, read-out: Inhibition

Compound | cytotoxicity at 70.5 h
C=C(C)CN1CCC(C(=O)c2cc(F)ccc2F)CC1 | 0.664%
CC(C)c1nc(C2CCCN(C(=O)CCn3ccccc3=O)C2)no1 (stereo unspecified) | 22.5%
Cc1nc(C2CCCN2CC(=O)N2CCc3ccccc32)no1 (stereo unspecified) | 21.3%
CCc1noc(CNCCn2cc(C)cn2)n1 | -3.69%
CCOc1ccccc1OC1CCN(C(=O)c2[nH]nc(C)c2Br)CC1 | 0.076%
CCOc1ccccc1N1CCN(C(=O)c2cc[nH]n2)CC1 | 0.935%
Cc1cc(C)c(CNC(=O)NCc2ccc(F)c(C)c2)c(=O)[nH]1 | -0.902%
Cc1cc(C)c(CNC(=O)NCc2ccncc2)c(=O)[nH]1 | -0.477%
O=C(c1ccccc1)N1CCN(CC(O)c2ccc(F)cc2)CC1 (stereo unspecified) | -11%
O=C(Cc1ccc(F)cc1)N1CCN(CC(O)c2ccccc2)CC1 (stereo unspecified) | -4.51%
NC(=O)C1CCN(C(=O)NCc2cccnc2OCC(F)(F)F)C1 (stereo unspecified) | -1.73%
c1ccc(-c2nc(CNCCn3cccn3)cs2)nc1 | 19.2%
CCc1ccc(C(=O)N2CCN(CC(O)c3ccccc3)CC2)o1 (stereo unspecified) | 1.67%
Cc1nc(C2CCCN(C(=O)CCn3ccccc3=O)C2)no1 (stereo unspecified) | -3.24%
CCc1nc(C2CCCN2CCC(=O)N2CCc3ccccc32)no1 (stereo unspecified) | 20.5%
Cc1nc(C2CCCN(C(=O)c3cc4c(s3)CCCC4)C2)no1 (stereo unspecified) | 5.35%
CCc1nc2n(n1)CC(NCC(=O)Nc1oc(C)c(C)c1C#N)CC2 (stereo unspecified) | 7.08%
CN(Cc1ccco1)C(=O)c1cccc(N2CCCC2=O)c1 | -8.03%
CC(Cn1ccnc1)NC(=O)NCCc1ccc(Cl)s1 (stereo unspecified) | -4.32%
Cn1cc(C2CCCN2C(=O)COCCc2ccccc2)cn1 (stereo unspecified) | -8.67%
CCc1nc2n(n1)CC(NCC(=O)Nc1cc(C)nn1C)CC2 (stereo unspecified) | -6.14%
CC(C)c1noc(CCCC(=O)N2CCN(Cc3ccccn3)CC2)n1 | -11.6%
CC(C)c1noc(CCCC(=O)N2CCN(Cc3ccsc3)CC2)n1 | -6.21%
Cc1nc(CCNC(=O)NC(C)Cn2cccn2)cs1 (stereo unspecified) | -12.8%

Compound | cytotoxicity at 70.5 h
Cn1cc(NS(=O)(=O)c2ccc(C(F)(F)F)cc2)ccc1=O | -9.18%
CCCc1ccc(S(=O)(=O)Nc2ccc(=O)n(C)c2)cc1 | 22.8%
Cn1ncc2c(=O)[nH]c(CN3CCCC3c3cccc(F)c3)nc21 (stereo unspecified) | -7.63%
Cn1ncc2c(=O)[nH]c(CN3CCc4sccc4C3)nc21 | 13.1%
CCc1nc(CN2CCN(C(=O)C3(C#N)CCCC3)CC2)cs1 | -2.5%
CCn1cnnc1C1CCN(C(=O)c2cnc(C)s2)CC1 | -12.3%
Cn1cc(C2CCCN2C(=O)CCCOc2ccc(F)cc2)cn1 (stereo unspecified) | 15.6%
Cn1cc(C2CCCN2C(=O)COCCOc2ccccc2)cn1 (stereo unspecified) | -4.67%
CN(C)c1cc2c(nn1)CCN(C(=O)C1Cc3ccccc3O1)C2 (stereo unspecified) | 8.33%
COc1ncccc1CNC(=O)N(Cc1ccc(F)cc1F)C1CC1 | -12.4%
CCc1ccc(C(=O)N2CCC(c3nncn3CC)CC2)s1 | -7.92%
Cn1cnnc1C1CCN(C(=O)c2cc3c(s2)CCCC3)CC1 | 14.6%
CN(Cc1nccn1C)C1CCCN(Cc2noc(C3CC3)n2)C1 (stereo unspecified) | 15.8%
CCc1cnc(CN(C)C2CCN(CC(=O)Nc3cc(C)on3)C2)o1 (stereo unspecified) | 11.1%
CCC(O)CN1CCN(C(=O)c2ccc3c(c2)COC3)CC1 (stereo unspecified) | 14.3%
OC(COCc1ccccc1)CN1CCC(c2ccn[nH]2)CC1 (stereo unspecified) | 19.6%
CN(CC(=O)N1CCCCC1Cn1cccn1)C1CC1 (stereo unspecified) | 4.49%
Cn1ccnc1CN1CCN(Cc2noc(C3CC3)n2)CC1 | -12.6%
CC(C(=O)NCCOc1ccc(F)cc1)n1cncn1 (stereo unspecified) | -14.7%
O=C(NCc1ccccn1)C1=NN(c2ccccc2)C(=O)CN1 | -16.4%
CCCc1noc(CCC(=O)N2CCCC2c2ccc(OC)cc2)n1 (stereo unspecified) | -16.8%
OC(COc1ccc(F)cc1)CN1CCC(c2ccn[nH]2)CC1 (stereo unspecified) | -9.19%
Cc1nc(-c2ccco2)ccc1C(=O)N1CCn2c(C)nnc2C1 | -17.1%
CCN1CCN(C2CCN(CC(=O)NCC(F)(F)F)CC2)C1=O | -6.43%

Compound | cytotoxicity at 70.5 h
Cc1cnn(CCNCC(O)COc2c(Cl)cccc2Cl)c1 (stereo unspecified) | -4.22%
Cc1noc(C)c1C(=O)N1CCCC1c1c(C)nn(C)c1C (stereo unspecified) | -8.88%
Cc1nn(C)c(Cl)c1C1CCCN1Cc1cccc(C(N)=O)c1 (stereo unspecified) | -10.9%
c1coc(-c2noc(CN3CCCCC3Cn3cncn3)n2)c1 (stereo unspecified) | 5.99%
CCn1ncc2c1CCCC2NCc1cc(OC)cc(OC)c1 (stereo unspecified) | -9.39%
CCc1noc(CN2CCN(C(=O)N(CC)CC)CC2)n1 | -10%
Cc1cccc(OCC(O)CN2CCC(c3ccn[nH]3)CC2)c1 (stereo unspecified) | -0.803%
CCc1c(C(=O)N2CCN(c3ncccn3)CC2)cnn1C(C)(C)C | -2.98%
Cc1ccc(CNC(=O)Nc2nnc(C)s2)cn1 | -5.53%
CCc1ccc(CNC(=O)N2CCN(Cc3cc(C)no3)CC2)s1 | 19.6%
Cc1cc(CN2CCN(C(=O)NCc3nc(C)cs3)CC2)on1 | -11.7%
O=C(NCCn1ccnc1)c1ccn(-c2cccc(F)c2)n1 | 12.4%
O=C(CCNc1ncccn1)NCCOc1ccc2c(c1)CCC2 | -16.3%
COc1cc(CCC(=O)NCC2CCCN2C)ccc1OCC(F)(F)F (stereo unspecified) | -7.43%
COc1ccc(CN(C)C(=O)NCc2c(C)cc(C)[nH]c2=O)cc1 | -4.65%
CCc1ncncc1C(=O)N1CCN(Cc2c(C)noc2C)CC1 | -11.6%
CCN1CCN(C(=O)CCc2c(C)noc2Cl)CC1 | -13.8%
Cc1nnc2n1CCN(C(=O)c1cc(C)n(-c3ccccn3)c1C)C2 | -14%
Cc1cccc(-n2c(C)cc(C(=O)N3CCn4c(C)nnc4C3)c2C)c1 | -1.57%
Cc1noc(Cl)c1CCC(=O)N1CCC(CC(N)=O)CC1 | -4.77%
CCc1c(C(=O)N2CCN(CC(N)=O)CC2)cnn1C(C)(C)C | -2.02%
Cn1cnc2c1CCN(Cc1nc(COc3ccc(F)cc3)no1)C2 | 10.6%
Cc1nc(C)n(CC2CCCN2CC(=O)Nc2cc(C(C)C)no2)n1 (stereo unspecified) | -13.1%
Cc1nc2n(n1)CC(NCc1cc(Cl)c3c(c1)OCCCO3)CC2 (stereo unspecified) | -6.52%

Compound | cytotoxicity at 70.5 h
CN(Cc1ccco1)C(=O)[C@H]1CSCN1C(=O)OC(C)(C)C | -1.49%
Cc1nn(C)c(C)c1C1CCCN1C(=O)CCc1cscn1 (stereo unspecified) | -6.08%
COc1cc(CNC2CCc3nc(C(C)C)nn3C2)cc2c1OCO2 (stereo unspecified) | -13.1%
CSCC(=O)N1CCCC(n2ccnc2C(C)C)C1 (stereo unspecified) | -7.04%
CC(C)c1nccn1C1CCCN(C(=O)c2cnn(C)c2C2CC2)C1 (stereo unspecified) | 5.54%
CN(CCCOc1ccccc1)C(=O)CN1CCc2cncnc2C1 | 8.28%
O=C(CN1CCc2cncnc2C1)NCCOc1ccccc1 | -5.53%
O=C(CC1CCCO1)NCc1ccccc1Cn1cncn1 (stereo unspecified) | -3.75%
CCN(CC)c1ccc(C(=O)N(C)Cc2c(C)noc2C)cn1 | -3.66%
N#Cc1ccc(CN2CCC(c3ccnn3CCO)CC2)cc1 | -2.2%
Cc1noc(C)c1CNC(=O)c1ccc(NC2CC2)nc1 | 5.69%
CCc1nc(C(=O)N2CCCC2)nn1-c1ccccc1Cl | 10.2%
Cc1nccc(-c2cccc(NCC(=O)N3CCCCCCC3)c2)n1 | 17.3%
Cc1cc(C)n(CC2CN(CCOc3cccc(C#N)c3)CCO2)n1 (stereo unspecified) | 0.061%
Cc1cc(C)c(CNC(=O)NCC(O)c2cccc(F)c2)c(=O)[nH]1 (stereo unspecified) | -3.53%
CCc1ncc(CN(C)C(=O)Nc2cccnc2N2CCCC2)s1 | 0.712%
CC(C)c1nccn1C1CCCN(C(=O)c2cnc[nH]2)C1 (stereo unspecified) | 3.72%
O=C1COc2ccc(C(=O)NS(=O)(=O)c3ccc(F)cc3F)cc2N1 | -0.102%
CC(C)c1n[nH]c(C2CN(C(=O)c3cccc4cn[nH]c34)CCO2)n1 (stereo unspecified) | 3.42%
CC(C)c1n[nH]c(C2CN(C(=O)c3csnn3)CCO2)n1 (stereo unspecified) | -3.07%
CC(OCC1CC1)C(=O)N1CCCN(c2ncccc2C#N)CC1 (stereo unspecified) | 15.5%
COc1ccc(-c2noc(CNC(C)Cn3cccn3)n2)c(OC)c1 (stereo unspecified) | 22.3%
Cn1ccnc1CN1CCCN(C(=O)c2ccc3c(c2)COC3)CC1 | 5.68%
O=C(NCCC1=CCCCC1)NCc1nnc2n1CCC2 | -10.8%

Compound | cytotoxicity at 70.5 h
O=C(NCc1cc[nH]n1)N1CCN(c2ccccc2Cl)CC1 | 6.1%
O=C(NCCN1CCCCC1)c1scnc1Cl | -8.74%
CN(CCc1ccc(F)cc1)Cc1nc2c(cnn2C)c(=O)[nH]1 | 11.7%
CC(C(=O)N1CCCN(c2ncccc2C#N)CC1)n1cccn1 (stereo unspecified) | -9.79%
CN(CC(=O)N1CCCC1c1cnn(C)c1)c1ccc(Cl)cn1 (stereo unspecified) | 3.73%
O=C(NCc1ccc(-c2ccn[nH]2)cc1)N1CCC(N2CCCC2)C1 (stereo unspecified) | -5.88%
Cc1nnc(CN2CCN(CCOc3ccccc3C#N)CC2)n1C | 7.15%
CCc1ncc2c(n1)CN(Cc1nc(-c3ccsc3)oc1C)CC2 | 1.83%
O=C(CCOc1ccccc1)N1CCC(Nc2cccnn2)CC1 | 1.59%
O=C(c1ccsc1)N1CCCC(c2cc(C(F)(F)F)[nH]n2)C1 (stereo unspecified) | 11.1%
O=C(c1ccc(Cl)o1)N1CCCC(c2cc(C(F)(F)F)[nH]n2)C1 (stereo unspecified) | -3.16%
O=C(c1ccc[nH]1)N1CCCC(c2cc(C(F)(F)F)[nH]n2)C1 (stereo unspecified) | -0.878%
CC(C)(C)c1ncc(C(=O)NCCS(N)(=O)=O)s1 | -1.37%
CSc1nccn1-c1cccc(C(=O)NCC2CC2)c1 | 0.766%
O=C(NCc1cc[nH]n1)N1CCCCC(N2CCCC2)C1 (stereo unspecified) | -0.0102%
COc1cc(C)ccc1OCCC(=O)N1CCCC1Cn1cccn1 (stereo unspecified) | -3.24%
Cn1ccnc1CN1CCCN(C(=O)c2ccc(Cl)o2)CC1 | -8.18%
Cc1cc(NC(=O)CN2CCc3cnc(C)nc3C2)on1 | 35.8%
O=C(NCCN1CCCc2ccccc21)c1scnc1Cl | 10.6%
CC(C)c1nn(C)c(N(C)C)c1CNCc1cccc(CN(C)C)c1 | 0.875%
